Data as given in patent publication US20050197350A1, “Novel quinoline, tetrahydroquinazoline, and pyrimidine derivatives and methods of treatment related to the use thereof” (TAISHO PHARMACEUTICAL CO., LTD., priority 2003, published 2005).

These compounds were tested on MCH receptors (assay: MCH receptor activity class (method not given)). Details: MCH receptor activity class 1-3 (percent of control at 10^-7 M or IC50).
With `CN(C)c1ccnc(N[C@H]2CC[C@@H](CNC(=O)Nc3c(F)cc(Br)cc3F)CC2)n1` [compound 2432] the class was 1 (Class 1: The value of percent of control at 10^−7 M was less than 40% or the value of IC50 was less than 50 nM.). With `Cc1cc(Br)ccc1NC(=S)N[C@H]1CC[C@@H](Nc2nccc(N(C)C)n2)CC1` [compound 2329] the class was 3 (Class 3 The value of percent of control at 10^−7 M was more than 60% or the value of IC50 was more than 200 nM.). `CN(C)c1cc(N[C@H]2CC[C@@H](CNC(=O)Nc3cc(F)cc(F)c3)CC2)nc2ccccc12` [compound 2403] was tested, and the class was 3 (Class 3 The value of percent of control at 10^−7 M was more than 60% or the value of IC50 was more than 200 nM.). With `CCCCc1ccc(NC(=S)N[C@H]2CC[C@@H](Nc3cc(N(C)C)c4ccccc4n3)CC2)c(C)c1` [compound 2313] the class was 3 (Class 3 The value of percent of control at 10^−7 M was more than 60% or the value of IC50 was more than 200 nM.).

Same assay, conditions: MCH receptor; class by percent of control at 10^-7 M or IC50
With `Cc1cc(C)cc(NC(=S)N[C@H]2CC[C@@H](Nc3nc4c(c(N(C)C)n3)CCCC4)CC2)c1` [compound 2007] the class was 3 (Class 3 The value of percent of control at 10^−7 M was more than 60% or the value of IC50 was more than 200 nM.). `CN(C)c1ccc(NC(=S)N[C@H]2CC[C@@H](Nc3nc4c(c(N(C)C)n3)CCCC4)CC2)cc1` [compound 2072] was tested, and the class was 3 (Class 3 The value of percent of control at 10^−7 M was more than 60% or the value of IC50 was more than 200 nM.). `COc1cccc(CNC(=S)N[C@H]2CC[C@@H](Nc3nc4c(c(N(C)C)n3)CCCC4)CC2)c1` [compound 2044] was tested, and the class was 3 (Class 3 The value of percent of control at 10^−7 M was more than 60% or the value of IC50 was more than 200 nM.). `CN(C)c1cc(N[C@H]2CC[C@@H](CNC(=O)c3ccc(F)c(Cl)c3)CC2)nc2ccccc12` [compound 200] was tested, and the class was 3 (Class 3 The value of percent of control at 10^−7 M was more than 60% or the value of IC50 was more than 200 nM.). `CN(C)c1nc(N[C@H]2CC[C@@H](NC(=S)NC(C)(C)CC(C)(C)C)CC2)nc2c1CCCC2` [compound 1954] was tested, and the class was 3 (Class 3 The value of percent of control at 10^−7 M was more than 60% or the value of IC50 was more than 200 nM.). With `CN(C)c1nc(N[C@H]2CC[C@@H](NC(=O)Nc3cccs3)CC2)nc2c1CCCC2` [compound 1916] the class was 3 (Class 3 The value of percent of control at 10^−7 M was more than 60% or the value of IC50 was more than 200 nM.). `CN(C)c1nc(N[C@H]2CC[C@@H](NC(=S)Nc3cccc(Cl)c3)CC2)nc2c1CCCC2` [compound 1933] was tested, and the class was 3 (Class 3 The value of percent of control at 10^−7 M was more than 60% or the value of IC50 was more than 200 nM.).

Same assay, conditions: activity class 1-3: percent of control at 10^-7 M or IC50
For `CN(C)c1nc(N[C@H]2CC[C@@H](NC(=O)OCC3c4ccccc4-c4ccccc43)CC2)nc2c1CCCC2` [compound 1597], the class was 3 (Class 3 The value of percent of control at 10^−7 M was more than 60% or the value of IC50 was more than 200 nM.). For `CC(C)c1ccccc1NC(=O)N[C@H]1CC[C@@H](Nc2nc3c(c(N(C)C)n2)CCCC3)CC1` [compound 1680], the class was 3 (Class 3 The value of percent of control at 10^−7 M was more than 60% or the value of IC50 was more than 200 nM.).

Same assay, conditions: class 1-3 by percent of control at 10^-7 M or IC50
In the case of `CN(C)c1nc(N[C@H]2CC[C@@H](NC(=O)c3cccc(Cl)c3F)CC2)nc2c1CCCC2` [compound 495], the class is reported as 3 (Class 3 The value of percent of control at 10^−7 M was more than 60% or the value of IC50 was more than 200 nM.).

Same assay, conditions: class by percent of control at 10^-7 M or IC50
In the case of `CN(C)c1cc(N[C@H]2CC[C@@H](NC(=O)CCCc3cccs3)CC2)nc2ccccc12` [compound 746], the class is reported as 3 (Class 3 The value of percent of control at 10^−7 M was more than 60% or the value of IC50 was more than 200 nM.). `CN(C)c1ccnc(N[C@H]2CC[C@@H](NC(=O)Nc3c(Cl)cc(Cl)cc3Cl)CC2)n1` [compound 2189, N-(cis-4-{[4-(dimethylamino)pyrimidin-2-yl]amino}cyclohexyl)-N′-(2,4,6-trichlorophenyl)urea] was tested, and the class was 1 (Class 1: The value of percent of control at 10^−7 M was less than 40% or the value of IC50 was less than 50 nM.). In the case of `Cc1ccccc1NC(=O)N[C@H]1CC[C@@H](Nc2nccc(N(C)C)n2)CC1` [compound 2188], the class is reported as 3 (Class 3 The value of percent of control at 10^−7 M was more than 60% or the value of IC50 was more than 200 nM.). In the case of `CN(C)c1ccnc(N[C@H]2CC[C@@H](NC(=O)CCc3ccccc3O)CC2)n1` [compound 818], the class is reported as 3 (Class 3 The value of percent of control at 10^−7 M was more than 60% or the value of IC50 was more than 200 nM.). For `Cc1cccc(CNC(=O)N[C@H]2CC[C@@H](Nc3nc4c(c(N(C)C)n3)CCCC4)CC2)c1` [compound 1836], the class was 3 (Class 3 The value of percent of control at 10^−7 M was more than 60% or the value of IC50 was more than 200 nM.). For `CN(C)c1ccnc(N[C@H]2CC[C@@H](NC(=O)NCc3ccc(F)cc3)CC2)n1` [compound 2245], the class was 3 (Class 3 The value of percent of control at 10^−7 M was more than 60% or the value of IC50 was more than 200 nM.). With `COc1cc(F)c(CNC[C@H]2CC[C@@H](Nc3cc(N(C)C)c4ccccc4n3)CC2)cc1OC` [compound 1200] the class was 3 (Class 3 The value of percent of control at 10^−7 M was more than 60% or the value of IC50 was more than 200 nM.). `COc1cc([N+](=O)[O-])ccc1C(=O)N[C@H]1CC[C@@H](Nc2nccc(N(C)C)n2)CC1` [compound 910] was tested, and the class was 3 (Class 3 The value of percent of control at 10^−7 M was more than 60% or the value of IC50 was more than 200 nM.). `CSc1ccc(CN[C@H]2CC[C@@H](Nc3nccc(N(C)C)n3)CC2)cc1` [compound 1239] was tested, and the class was 3 (Class 3 The value of percent of control at 10^−7 M was more than 60% or the value of IC50 was more than 200 nM.). For `Cc1ccc(NC(=S)N[C@H]2CC[C@@H](Nc3nc4c(c(N(C)C)n3)CCCC4)CC2)c(Br)c1` [compound 1758], the class was 3 (Class 3 The value of percent of control at 10^−7 M was more than 60% or the value of IC50 was more than 200 nM.). `CN(C)c1ccnc(N[C@H]2CC[C@@H](NCc3c[nH]nc3-c3ccc(C(F)(F)F)cc3)CC2)n1` [compound 1218] was tested, and the class was 3 (Class 3 The value of percent of control at 10^−7 M was more than 60% or the value of IC50 was more than 200 nM.). `Cc1cccc(CNC[C@H]2CC[C@@H](Nc3nc4c(c(N(C)C)n3)CCCC4)CC2)c1` [compound 1426] was tested, and the class was 3 (Class 3 The value of percent of control at 10^−7 M was more than 60% or the value of IC50 was more than 200 nM.). In the case of `Cc1oc(-c2ccccc2)cc1CNC[C@H]1CC[C@@H](Nc2nccc(N(C)C)n2)CC1` [compound 1313], the class is reported as 3 (Class 3 The value of percent of control at 10^−7 M was more than 60% or the value of IC50 was more than 200 nM.). With `CN(C)c1nc(N[C@H]2CC[C@@H](NC(=S)Nc3ccc(Oc4ccccc4)nc3)CC2)nc2c1CCCC2` [compound 2088] the class was 3 (Class 3 The value of percent of control at 10^−7 M was more than 60% or the value of IC50 was more than 200 nM.). With `CSc1ccc(NC(=O)N[C@H]2CC[C@@H](Nc3cc(N(C)C)c4ccccc4n3)CC2)cc1` [compound 2095] the class was 3 (Class 3 The value of percent of control at 10^−7 M was more than 60% or the value of IC50 was more than 200 nM.). For `CN(C)c1ccnc(N[C@H]2CC[C@@H](CNC(=O)c3cc(C(F)(F)F)ccc3F)CC2)n1` [compound 410], the class was 3 (Class 3 The value of percent of control at 10^−7 M was more than 60% or the value of IC50 was more than 200 nM.). For `CN(C)c1ccnc(N[C@H]2CC[C@@H](NC(=O)COc3ccccc3)CC2)n1` [compound 330, N-(cis-4-{[4-(dimethylamino)pyrimidin-2-yl]amino}cyclohexyl)-2-phenoxyacetamide], the class was 2 (Class 2: The value of percent of control at 10^−7 M was from 40% to 60% or the value of IC′50 was from 50 nM to 200 nM.). With `CN(C)c1nc(N[C@H]2CC[C@@H](NC(=S)Nc3ccc(N(C)C)c4ccccc34)CC2)nc2c1CCCC2` [compound 1747] the class was 2 (Class 2: The value of percent of control at 10^−7 M was from 40% to 60% or the value of IC′50 was from 50 nM to 200 nM.).

Same assay, conditions: class by percent of control at 10^−7 M or IC50
For `Cc1cnc(NC[C@H]2CC[C@@H](NC(=O)c3cc(C(F)(F)F)cc(C(F)(F)F)c3)CC2)nc1N(C)C` [compound 2731, N-[cis-4-({[4-(dimethylamino)-5-methylpyrimidin-2-yl]amino}methyl)cyclohexyl]-3,5-bis(trifluoromethyl)benzamide], the class was 2 (Class 2: The value of percent of control at 10^−7 M was from 40% to 60% or the value of IC′50 was from 50 nM to 200 nM.). With `Cc1cnc(N[C@H]2CC[C@@H](NC(=O)CN(C)c3ccc(F)c(F)c3)CC2)nc1N(C)C` [compound 2946] the class was 1 (Class 1: The value of percent of control at 10^−7 M was less than 40% or the value of IC50 was less than 50 nM.). For `Cc1nc(N[C@H]2CC[C@@H](NC(=O)c3ccc(C#N)cc3)CC2)nc(N(C)C)c1C` [compound 2844, 4-cyano-N-(cis-4-{[4-(dimethylamino)-5,6-dimethylpyrimidin-2-yl]amino}cyclohexyl)benzamide], the class was 1 (Class 1: The value of percent of control at 10^−7 M was less than 40% or the value of IC50 was less than 50 nM.). For `Cc1cc(N(C)C)nc(NC[C@H]2CC[C@@H](NC(=O)c3ccc(F)c(Cl)c3)CC2)n1` [compound 2746], the class was 3 (Class 3 The value of percent of control at 10^−7 M was more than 60% or the value of IC50 was more than 200 nM.). With `CSc1ccccc1NC(=O)[C@H]1CC[C@@H](Nc2ncc(C)c(N(C)C)n2)CC1` [compound 2792] the class was 2 (Class 2: The value of percent of control at 10^−7 M was from 40% to 60% or the value of IC′50 was from 50 nM to 200 nM.). `Cc1cc(N(C)C)nc(N[C@H]2CC[C@@H](C(=O)NCc3cc(Cl)ccc3Cl)CC2)n1` [compound 2808, cis-N-(2,5-dichlorobenzyl)-4-{[4-(dimethylamino)-6-methylpyrimidin-2-yl]amino}cyclohexanecarboxamide] was tested, and the class was 1 (Class 1: The value of percent of control at 10^−7 M was less than 40% or the value of IC50 was less than 50 nM.).
